Several values for one entry are separate records, joined by “and”; a condition that tells them apart may be missing. Equal entries are not always repeated.

As usually defined, the IC50 is the midpoint of a concentration-inhibition curve.

This assay deals with Human CD38 (Homo sapiens (Human), UniProt P28907). Description: Determination of IC50 against human CD38 (CD38 Inhibitor Screening Assay Kit, glycohydrolase activity, fluorescence). It is filed as biochemical. The settings on record: CD38 hydrolase enzyme, 30 min preincubation at room temperature, F-NAD substrate, excitation 300 nm, emission 410 nm; read-out: hCD38 IC50. On the procedure: CD38 hydrolase buffer (4×) was thawed on ice and 1×CD38 hydrolase buffer was prepared by diluting 4×CD38 hydrolase buffer with water. CD38 hydrolase enzyme was diluted to […] with 1×CD38 hydrolase buffer (10 ng/well). Master mix was prepared by mixing equal volumes of water and CD38 hydrolase buffer (4×) and 10 μl of the mix was added to all the wells. Following master mix addition, 10 μl of the inhibitors and 20 μl of CD38 hydrolase enzyme were added to the wells. For wells designated blank, 10 μl and 20 μl of 1× CD38 hydrolase buffer was added respectively in place of […]. The plate was covered and incubated 30 min at room temperature with slow shaking at 400 rpm. After 30 min incubation, the plate was removed and 10 μl of diluted F-NAD substrate was added to all the wells. The plate is incubated for 10 min, spun at 1200 rpm for 30 secs to remove bubbles and read in Tecan Spark using a fluorometer setting of excitation 300 nm and emission 410 nm. The reading for the blank was subtracted from all the values. IC50 for the test compounds were determined by using Graphpad prism software v7.0.
Sequence of Human CD38 (P28907 whole entry): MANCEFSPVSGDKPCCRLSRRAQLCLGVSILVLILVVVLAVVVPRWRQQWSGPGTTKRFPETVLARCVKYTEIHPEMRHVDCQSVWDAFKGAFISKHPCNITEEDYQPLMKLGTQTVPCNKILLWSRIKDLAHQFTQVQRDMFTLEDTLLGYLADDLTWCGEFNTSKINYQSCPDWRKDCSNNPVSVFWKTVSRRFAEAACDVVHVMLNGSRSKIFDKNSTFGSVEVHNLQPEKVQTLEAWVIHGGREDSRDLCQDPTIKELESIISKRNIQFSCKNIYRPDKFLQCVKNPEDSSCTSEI
`COCCO[C@H]1CC[C@H](NC(=O)c2cc(-c3ccn(C)n3)nc(-n3ccnc3)c2)CC1` [Ex. 26, 2-(1H-imidazol-1-yl)-N-((1r,4r)-4-(2-methoxyethoxy)cyclohexyl)-6-(1-methyl-1H-pyrazol-3-yl)isonicotinamide]: the IC50 is 150 nM.
`COCCO[C@H]1CC[C@H](NC(=O)c2cc(-c3cncs3)nc(-c3cncs3)n2)CC1` [Ex. 5, N-((1r,4r)-4-(2-methoxyethoxy)cyclohexyl)-2,6-di(thiazol-5-yl)pyrimidine-4-carboxamide]: the IC50 was determined as 256 nM.
With `O=C(N[C@H]1CC[C@H](O)CC1)c1ccnc(-n2ccnc2)n1` [Ex. 34, N-((1r,4r)-4-hydroxycyclohexyl)-2-(1H-imidazol-1-yl)pyrimidine-4-carboxamide], the IC50 came to 25.7 nM.
Turning to `COCCO[C@H]1CC[C@H](NC(=O)c2cc(SC)nc(-c3cncs3)n2)CC1` [Ex. 7, N-((1r,4r)-4-(2-methoxyethoxy)cyclohexyl)-6-(methylthio)-2-(thiazol-5-yl)pyrimidine-4-carboxamide], the IC50 was greater than 10000 nM.
For the compound `COCCO[C@H]1CC[C@H](NC(=O)c2cc(SC)cc(-n3ccnc3)n2)CC1` [Ex. 37, 6-(1H-imidazol-1-yl)-N-((1r,4r)-4-(2-methoxyethoxy)cyclohexyl)-4-(methylthio)picolinamide], the IC50 was 42 nM.
Then `COCCO[C@H]1CC[C@H](NC(=O)c2cc(-c3cncs3)nc(-c3cncs3)c2)CC1` [Ex. 2, N-((1r,4r)-4-(2-methoxyethoxy)cyclohexyl)-2,6-di(thiazol-5-yl)isonicotinamide], with greater than 100 nM; and `COCCO[C@H]1CC[C@H](NC(=O)c2cc(C)nc(-n3ccnc3)c2)CC1` [Ex. 46, 2-(1H-imidazol-1-yl)-N-((1r,4r)-4-(2-methoxyethoxy)cyclohexyl)-6-methylisonicotinamide], with 144 nM; and `COCCO[C@H]1CC[C@H](NC(=O)c2cc(-c3cnn(C)c3)nc(-c3cncs3)n2)CC1` [Ex. 6, N-((1r,4r)-4-(2-methoxyethoxy)cyclohexyl)-6-(1-methyl-1H-pyrazol-4-yl)-2-(thiazol-5-yl)pyrimidine-4-carboxamide], with 53 nM.
Then `COCCO[C@H]1CC[C@H](NC(=O)c2cc(-n3ccnc3)nc(-n3ccnc3)c2)CC1` [Ex. 22, 2,6-di(1H-imidazol-1-yl)-N-((1r,4r)-4-(2-methoxyethoxy)cyclohexyl)isonicotinamide], with 17.9 nM; and `CO[C@]1(C)CC[C@@H](NC(=O)c2ccnc(-n3ccnc3)n2)CC1` [Ex. 54, 2-(1H-imidazol-1-yl)-N-((1r,4r)-4-methoxy-4-methylcyclohexyl)pyrimidine-4-carboxamide], with 28 nM; and `O=C(NC1CCCCC1)c1cccc(-n2ccnc2)n1` [Ex. 32, N-cyclohexyl-6-(1H-imidazol-1-yl)picolinamide], with 53 nM.
Take `COCCO[C@H]1CC[C@H](NC(=O)c2cc(C(F)(F)F)cc(-n3ccnc3)n2)CC1` [Ex. 19, 6-(1H-imidazol-1-yl)-N-((1r,4r)-4-(2-methoxyethoxy)cyclohexyl)-4-(trifluoromethyl)picolinamide]: the IC50 was determined as 45.9 nM.
Take `COCCO[C@H]1CC[C@H](NC(=O)c2cc(-c3cnn(C)c3)nc(-n3ccnc3)c2)CC1` [Ex. 23, 2-(1H-imidazol-1-yl)-N-((1r,4r)-4-(2-methoxyethoxy)cyclohexyl)-6-(1-methyl-1H-pyrazol-4-yl)isonicotinamide]: the IC50 is 21 nM.
In the case of `COCCO[C@H]1CC[C@H](NC(=O)c2cc(C(F)F)cc(-n3ccnc3)n2)CC1` [Ex. 59, 4-(difluoromethyl)-6-(1H-imidazol-1-yl)-N-((1r,4r)-4-(2-methoxyethoxy)cyclohexyl)picolinamide] it was 20.9 nM.
As to `COCCO[C@H]1CC[C@H](NC(=O)c2cc(C(C)(C)O)cc(-n3ccnc3)n2)CC1` [Ex. 40, 4-(2-Hydroxypropan-2-yl)-6-(1H-imidazol-1-yl)-N-((1r,4r)-4-(2-methoxyethoxy)cyclohexyl)picolinamide], the half-maximal inhibitory concentration (IC50) was 1900 nM.
On to `COCCO[C@H]1CC[C@H](NC(=O)c2cc(-n3ccnc3)cc(-c3cnn(C)c3)n2)CC1` [Ex. 30, 4-(1H-imidazol-1-yl)-N-((1r,4r)-4-(2-methoxyethoxy)cyclohexyl)-6-(1-methyl-1H-pyrazol-4-yl)picolinamide], for which the IC50 is 429 nM.
Then `COCCO[C@H]1CC[C@H](NC(=O)c2cc(-c3cnn(C)c3)nc(-c3cncs3)c2)CC1` [Ex. 3, N-((1r,4r)-4-(2-methoxyethoxy)cyclohexyl)-2-(1-methyl-1H-pyrazol-4-yl)-6-(thiazol-5-yl)isonicotinamide], with 34 nM; and `COCCO[C@H]1C[C@H](NC(=O)c2ccnc(-n3ccnc3)n2)C1` [Ex. 65, 2-(1H-imidazol-1-yl)-N-((1r,3r)-3-(2-methoxyethoxy)cyclobutyl)pyrimidine-4-carboxamide], with 227 nM.
For the compound `Cc1cc(C(=O)N[C@H]2CC[C@H](OCCO)CC2)nc(-n2ccnc2)n1` [Ex. 44, N-((1r,4r)-4-(2-hydroxyethoxy)cyclohexyl)-2-(1H-imidazol-1-yl)-6-methylpyrimidine-4-carboxamide], the IC50 is 12 nM.
Turning to `COCCO[C@H]1CC[C@H](NC(=O)c2cc(-c3cnn(C(C)C)c3)nc(-n3ccnc3)c2)CC1` [Ex. 25, 2-(1H-imidazol-1-yl)-6-(1-isopropyl-1H-pyrazol-4-yl)-N-((1r,4r)-4-(2-methoxyethoxy)cyclohexyl)isonicotinamide], the IC50 was 12 nM.
Then `O=C(N[C@H]1CC[C@H](O)CC1)c1cccc(-n2ccnc2)n1` [Ex. 31, N-((1r,4r)-4-hydroxycyclohexyl)-6-(1H-imidazol-1-yl)picolinamide], with 54 nM; and `COCCO[C@H]1CC[C@H](NC(=O)c2cc(C3CC3)nc(-n3ccnc3)n2)CC1` [Ex. 56, 6-cyclopropyl-2-(1H-imidazol-1-yl)-N-((1r,4r)-4-(2-methoxyethoxy)cyclohexyl) pyrimidine-4-carboxamide], with 50 nM.
With `COCCO[C@H]1CC[C@H](NC(=O)c2cc(C(F)F)nc(-n3ccnc3)n2)CC1` [Ex. 52, 6-(Difluoromethyl)-2-(1H-imidazol-1-yl)-N-((1r,4r)-4-(2-methoxyethoxy)cyclohexyl)pyrimidine-4-carboxamide], the IC50 came to 89 nM.
On to `COCCO[C@H]1CC[C@H](NC(=O)c2cccc(-n3ccnc3)n2)CC1` [Ex 11, 6-(1H-imidazol-1-yl)-N-((1r,4r)-4-(2-methoxyethoxy)cyclohexyl)picolinamide], for which the IC50 worked out at 49 nM.
On to `COCCO[C@H]1CC[C@H](NC(=O)c2cc(CF)nc(-n3ccnc3)n2)CC1` [Ex. 51, 6-(fluoromethyl)-2-(1H-imidazol-1-yl)-N-((1r,4r)-4-(2-methoxyethoxy)cyclohexyl)pyrimidine-4-carboxamide], for which the IC50 was 17 nM.
For the compound `COCCO[C@H]1CC[C@H](NC(=O)c2cc(OC)cc(-n3ccnc3)n2)CC1` [Ex. 62, 6-(1H-imidazol-1-yl)-4-methoxy-N-((1r,4r)-4-(2-methoxyethoxy)cyclohexyl) picolinamide], the IC50 stood at 86.7 nM.
As to `COCCO[C@H]1CC[C@H](NC(=O)c2cc(-c3c(C)nn(C)c3C)cc(-n3ccnc3)n2)CC1` [Ex. 14, 6-(1H-imidazol-1-yl)-N-((1r,4r)-4-(2-methoxyethoxy)cyclohexyl)-4-(1,3,5-trimethyl-1H-pyrazol-4-yl)picolinamide], the IC50 was 24 nM.
Consider `COCCO[C@H]1CC[C@H](NC(=O)c2cc(C(N)=O)nc(-n3ccnc3)n2)CC1` [Ex. 48, 2-(1H-imidazol-1-yl)-N-((1r,4r)-4-(2-methoxyethoxy)cyclohexyl)pyrimidine-4,6-dicarboxamide], for which the IC50 turned out to be 18 nM.
On to `[2H]c1nc([2H])n(-c2nc(C)cc(C(=O)N[C@H]3CC[C@H](OCCOC)CC3)n2)c1[2H]` [Ex. 50, 2-(1H-imidazol-1-yl-d3)-N-((1r,4r)-4-(2-methoxyethoxy)cyclohexyl)-6-methylpyrimidine-4-carboxamide], for which the IC50 amounted to 14 nM.
Turning to `COCCO[C@H]1CC[C@H](NC(=O)c2cccc(-c3cncs3)n2)CC1` [Ex. 9, N-((1r,4r)-4-(2-methoxyethoxy)cyclohexyl)-6-(thiazol-5-yl)picolinamide], the half-inhibitory concentration (IC50) came out at 10000 nM.
In the case of `COCCO[C@H]1CC[C@H](NC(=O)c2cc(S(C)(=O)=O)cc(-n3ccnc3)n2)CC1` [Ex. 39, 6-(1H-imidazol-1-yl)-N-((1r,4r)-4-(2-methoxyethoxy)cyclohexyl)-4-(methylsulfonyl)picolinamide], the IC50 turned out to be 137 nM.
With `COCCO[C@H]1CC[C@@H](NC(=O)c2cc(C)nc(-n3ccnc3)n2)CC1` [Ex. 60, 2-(1H-imidazol-1-yl)-N-((1s,4s)-4-(2-methoxyethoxy)cyclohexyl)-6-methylpyrimidine-4-carboxamide], the IC50 was found to be 2.4 nM.
For the compound `CCS(=O)(=O)N[C@H]1CC[C@H](NC(=O)c2ccnc(-n3ccnc3)n2)CC1` [Ex. 53, N-((1r,4r)-4-(ethylsulfonamido)cyclohexyl)-2-(1H-imidazol-1-yl)pyrimidine-4-carboxamide], the IC50 was 16.6 nM and 8.8 nM.
Then `COCCO[C@H]1CC[C@H](NC(=O)c2cc(-c3cncs3)nc(-n3ccnc3)c2)CC1` [Ex. 1, N-((1r,4r)-4-(2-methoxyethoxy)cyclohexyl)-2-(thiazol-5-yl)-6-(1H-imidazol-1-yl)isonicotinamide], with 60 nM.

Values taken from patent US12514858B2, “CD38 inhibitors” (Astellas Engineered Small Molecules US, Incorporated, priority 2020, dated 2026).
